Where a SMILES comes first, the peptide text is derived from it.
Assays:
[1] = test system: human H1N1 influenza A virus A/Puerto Rico/8/1934 (PR8); details: human virus A/Puerto Rico/8/1934 (PR8)
PR8 virus = test system: PR8 virus; design: species or system influenza A virus
[2] = biological target: H1 HA of A/Puerto Rico/8/1934 H1N1 influenza virus (influenza A virus A/Puerto Rico/8/1934 H1N1) (UniProt P03452); test: cell-based or functional assay

Compound: CC[C@H](C)[C@H](N)C(=O)N1CCC[C@H]1C(=O)N[C@@H](CC(C)C)C(=O)N[C@@H](CCCNC(=N)N)C(=O)NCC(=O)N[C@@H](C)C(=O)N[C@@H](Cc1ccccc1)C(=O)N[C@H](C(=O)N[C@@H](CC(N)=O)C(=O)NCC(=O)N[C@@H](CCCNC(=N)N)C(=O)N[C@@H](Cc1c[nH]c2ccccc12)C(=O)N[C@@H](CC(=O)O)C(=O)N[C@@H](CO)C(=O)N[C@@H](CCC(N)=O)C(=O)N[C@@H](CS)C(=O)N[C@@H](Cc1c[nH]cn1)C(=O)N[C@@H](CCCNC(=N)N)C(=O)N[C@@H](Cc1ccccc1)C(=O)N[C@@H](CO)C(=O)N[C@@H](CC(N)=O)C(=O)NCC(=O)N[C@@H](C)C(=O)N[C@H](C(=O)N[C@@H](C)C(=O)N[C@@H](CS)C(=O)N[C@@H](C)C(=O)O)[C@@H](C)CC)[C@@H](C)CC [Urumin] (H-IPLRGAFINGRWDSQCHRFSNGAIACA-OH)
- IC50 [1]: 3.8 µM
- concentration reaching a 20% level of toxicity (human erythrocytes): 1430 µM
- toxicity to human erythrocytes (hemolysis) (human erythrocytes): no toxicity

Compound: CC[C@H](C)[C@H](NC(=O)CNC(=O)[C@H](CC(C)C)NC(=O)CNC(=O)[C@H](C)NC(=O)CNC(=O)[C@H](CCCCN)NC(=O)[C@H](C)NC(=O)[C@@H](NC(=O)CNC(=O)[C@@H](NC(=O)[C@H](C)NC(=O)[C@@H](NC(=O)[C@H](CC(=O)O)NC(=O)[C@H](CCCCN)NC(=O)[C@H](CC(C)C)NC(=O)[C@H](CCCCN)NC(=O)[C@@H](NC(=O)[C@@H](NC(=O)[C@H](Cc1ccccc1)NC(=O)[C@@H](N)CO)C(C)C)[C@@H](C)O)C(C)C)[C@@H](C)CC)C(C)C)C(=O)N[C@@H](CC(C)C)C(=O)N[C@@H](CCCCN)C(=O)N[C@H](C(=O)N[C@@H](CC(C)C)C(=O)N[C@H](C(=O)N[C@@H](CS)C(=O)N[C@@H](CCCCN)C(=O)N[C@@H](CC(C)C)C(=O)N[C@@H](CC(=O)O)C(=O)N[C@@H](CC(N)=O)C(=O)N[C@@H](CO)C(=O)N[C@@H](CS)C(=O)N[C@@H](C)C(=O)O)[C@@H](C)O)[C@@H](C)O [Peptide 28] (H-SFVTKLKDVAIGVAKGAGLGILKTLTCKLDNSCA-OH)
- hemolytic activity (human erythrocytes; at 10 μM): hemolytic activity

Compound: OVA257-264 peptide [OVA peptide]
- integrity of virus particles by electron microscopy (PR8 virus): appear intact

Compound: Urumin (peptide)
- IC50, plaque assay against PR8 virus [2]: 3.8 µM

— patent publication US20190367567A1 (priority 2016, published 2019)
